Assay results from US20210332396A1, “GENETIC ELEMENTS IN ENTEROCOCCUS SPP. TO PRODUCE DOPAMINE” (Iowa State University Research Foundation, Inc., priority 2018, published 2021).

Legend:
[1] = cited from earlier work
[2] = tested on: E. faecium strain ML1082; experiment: Inhibition of dopamine production of strain ML1082 by Carbidopa in sSIM; assay type: cell-based, Enterococcus faecium
Procedure: To further verify the strains were producing dopamine from L-DOPA, Carbidopa, an inhibitor of dopamine production through L-DOPA decarboxylation, was added to sSIM. […] A functional approximation of the ICso for dopamine was calculated to be 1.53E^−3. The IC50 was similar to the L-DOPA concentration of the broth, 1.26 mM, a finding that may indicate a competitive inhibitory mechanism for the bacterial enzyme.

Compound | half-life of auto-oxidation ([1]; pH of 5.6) | reaction rate for the auto-oxidation (k) ([1]; pH of 5.6) | half-life of oxidation ([1]; pH of 7.4) | oxidation rate ([1]; pH of 7.4) | inhibition of dopamine production (in words) [2]
NCCc1ccc(O)c(O)c1 [dopamine] | 324 h | 0.000000591 s⁻¹ | 4.95 min | 0.000586 s⁻¹ | 
C[C@@](Cc1ccc(O)c(O)c1)(NN)C(=O)O [Carbidopa] |  |  |  |  | dose-dependent inhibition
